Consider 52 compounds from US20060270694A1, “JAK kinase inhibitors and their uses” (Rigel Pharmaceuticals, Inc., priority 2005, published 2006).

In the assay the test system is JAK kinase (JAK1 and JAK3). Description: IL-4 activation assay: CD23 upregulation in IL-4 stimulated Ramos B-cells, FACS. It counts as cell-based, human. As for the experimental part: The selectivity of the compounds illustrated in TABLES 1 and 2 for JAK kinases as compared to Syk kinase was confirmed in cellular assays designed to test for JAK and Syk inhibition. Briefly, JAK inhibition was tested in human Ramos B-cells activated with IL-4. Twenty to 24 hours post stimulation, the cells are stained for upregulation of CD23 and analyzed by FACS. Stimulation of the B-cells with IL-4 leads to the activation of the JAK/STAT pathway through phosphorylation of the JAK kinase JAK1 and JAK3, which in turn phosphorylate and activate transcription of factor […].
For the assay, human Ramos B-cells (ATCC, Catalog No. CRL-1596) are cultured in RPMI 1640 medium (Cellgro, Catalog No. 10-040-CM) containing 10% fetal bovine serum (JRH, Catalog No. 12106-500M) according to the propagation protocol supplied with the cells, and maintained at a density of approximately 3.5×10^5 cells/ml. The day before the assay, the cells are diluted to 3.5×10^5 cells/ml to insure they are in the logorithmic growth phase. The cells are spun down, and suspended in RPMI 1640 medium containing 5% fetal bovine serum to a density of 3.5×10^4 cells/ml and aliquots dispensed into a 96-well tissue culture plate. Cells are incubated with test compound (dissolved in DMSO) or DMSO (control) for 1 hr at 37° C. and then stimulated with IL-4 (Pepotech, Catalog No. 200-04) for 20-24 hours (final concentration is 50 Units/ml). Cells are then spun down, stained with anti-CD23-PE antibody (BD Pharmigen, Catalog No.555711) and analyzed by FACS.

Setting [1] is: TABLE 2, IC50 CHMC degranulation (tryptase) / IC50 IL-4 Ramos CD23.
Where [2] appears, read: TABLE 1, IC50 CHMC degranulation / IC50 IL-4 Ramos CD23, minimum ratio, calculated using Syk IC50 of 50 μM (upper limit of assay).

Take `CCN(CC)CCNC(=O)c1ccc(Nc2ncc(F)c(NC3CCCC3)n2)cc1` [Cmpd 38]: the “IC50 Ratio (Syk/JAK)” value under setting [1] is 39.

On to `COC(=O)c1ccc(Nc2ncc(F)c(Nc3ccc(OC)c(Cl)c3)n2)cc1` [Cmpd 25], for which the “IC50 Ratio (Syk/JAK)” value under setting [2] was 13.

Regarding `CNC(=O)CNC(=O)c1ccc(Nc2ncc(F)c(Nc3ccc4c(c3)C(N)CCO4)n2)cc1` (stereo not shown) [Cmpd 53], the “IC50 Ratio (Syk/JAK)” value under setting [1] amounted to 24.

On to `COc1ccc(N(C)c2nc(Nc3cccc(-c4ncco4)c3)ncc2F)cc1OC` [Cmpd 41], for which, under setting [1], the “IC50 Ratio (Syk/JAK)” value is 32.

Turning to `CNC(=O)COc1cccc(Nc2ncc(F)c(Nc3ccc4c(c3)C(N(C)C(=O)OC(C)(C)C)CCO4)n2)c1` (stereo not shown) [Cmpd 86], the “IC50 Ratio (Syk/JAK)” value under setting [1] is recorded as 10.

`Cc1noc(COc2ccc(Nc3nc(Nc4ccc(C(N)=O)cc4)ncc3F)cc2)n1` [Cmpd 82]: under setting [1], the “IC50 Ratio (Syk/JAK)” value was found to be 10.

For `O=[N+]([O-])c1cc(Nc2ccnc(Nc3ccc(Cl)c([N+](=O)[O-])c3)n2)ccc1Cl` [Cmpd 62], the “IC50 Ratio (Syk/JAK)” value under setting [1] is given as 19.

Take `Cc1cc(Nc2ncc(F)c(NC3CCCC3C(N)=O)n2)ccc1N1CCN(C)CC1` (stereo not shown) [Cmpd 2]: the “IC50 Ratio (Syk/JAK)” value under setting [2] was 155.

With `O=C(Nc1ccc(Nc2ncc(F)c(NC3CCCCC3)n2)cc1)c1ccccc1` [Cmpd 74], the “IC50 Ratio (Syk/JAK)” value under setting [1] turned out to be 14.

For the compound `COC(=O)c1cc(Nc2ncc(F)c(Nc3ccc4c(c3)OCCO4)n2)cc(-c2ncco2)c1` [Cmpd 5], the “IC50 Ratio (Syk/JAK)” value under setting [2] is 105.

Turning to `Fc1cnc(Nc2ccc3c(c2)OCCO3)nc1NC1CCCCC1` [Cmpd 19], the “IC50 Ratio (Syk/JAK)” value under setting [2] is recorded as 15.

`CCN(CC)CCNC(=O)c1ccc(Nc2ncc(F)c(Nc3ccc4c(c3)NC(=O)[C@H](C)O4)n2)cc1` [Cmpd 27]: the “IC50 Ratio (Syk/JAK)” value under setting [1] is 247.

`COc1cc(OC)cc(N(C)c2nc(Nc3cc(C)cc(C)c3)ncc2F)c1` [Cmpd 35]: the “IC50 Ratio (Syk/JAK)” value under setting [1] is listed as 44.

As to `C[C@H]1Oc2ccc(Nc3nc(Nc4ccc(C(=O)NCC(=O)O)cc4)ncc3F)cc2NC1=O` [Cmpd 26], under setting [2], the “IC50 Ratio (Syk/JAK)” value is recorded as 10.

In the case of `COc1ccc(Nc2nc(Nc3cc(Cl)c(OC)c(Cl)c3)ncc2F)cc1Cl` [Cmpd 21], the “IC50 Ratio (Syk/JAK)” value under setting [2] was 14.

Turning to `CNC(=O)COc1cc(Nc2ncc(F)c(Nc3cccc(O)c3)n2)cc(OCC(=O)NC)c1` [Cmpd 31], the “IC50 Ratio (Syk/JAK)” value under setting [1] was 74.

Regarding `C[C@@H]1Oc2ccc(Nc3nc(Nc4ccc(C(N)=O)cc4)ncc3F)cc2NC1=O` [Cmpd 42], under setting [1], the “IC50 Ratio (Syk/JAK)” value is on record as 32.

As to `NCCNC(=O)c1cc2cc(Nc3ncc(F)c(Nc4ccc5oc(C(=O)NCCN)cc5c4)n3)ccc2o1` [Cmpd 52], the “IC50 Ratio (Syk/JAK)” value under setting [1] was found to be 25.

Consider `COc1ccc(Nc2nc(Nc3cccc(-c4nnc(C(C)(C)C)o4)c3)ncc2F)cc1OC` [Cmpd 63], for which the “IC50 Ratio (Syk/JAK)” value under setting [1] is reported as 19.

As for `CNC(=O)n1ccc2ccc(Nc3nc(Nc4cc(C)cc(C)c4)ncc3F)cc21` [Cmpd 7], the “IC50 Ratio (Syk/JAK)” value under setting [2] was 57.

For `CCNC(=O)Nc1ccc(Nc2ncc(F)c(Nc3ccc(NC(=O)NCC)cc3)n2)cc1` [Cmpd 9], the “IC50 Ratio (Syk/JAK)” value under setting [2] is 47.

In the case of `CCN(CC)CCNC(=O)c1ccc(Nc2ncc(F)c(Nc3ccc(Cl)c(OC)c3)n2)cc1` [Cmpd 48], the “IC50 Ratio (Syk/JAK)” value under setting [1] was found to be 28.

On to `Cc1cc(Nc2ncc(F)c(N[C@@H]3CC=CC[C@H]3C(N)=O)n2)ccc1N1CCN(C)CC1` [Cmpd 14], for which the “IC50 Ratio (Syk/JAK)” value under setting [2] is listed as 25.

As to `COc1ccc(Nc2nc(Nc3cc(Cl)c(O)c(Cl)c3)ncc2F)cc1Cl` [Cmpd 80], the “IC50 Ratio (Syk/JAK)” value under setting [1] was determined as 11.

As to `CN1CCN(c2ccc(Nc3ncc(F)c(NC4CC(C)(C)N(C)C(C)(C)C4)n3)cc2Cl)CC1` [Cmpd 1], the “IC50 Ratio (Syk/JAK)” value under setting [2] is given as 207.

Consider `NCc1ccc(Nc2ncc(F)c(Nc3ccc(CN)cc3)n2)cc1` [Cmpd 32], for which, under setting [1], the “IC50 Ratio (Syk/JAK)” value amounted to 65.

`COc1ccc(Nc2nc(Nc3ccc(C(N)=O)c(Cl)c3)ncc2F)cc1Cl` [Cmpd 83]: the “IC50 Ratio (Syk/JAK)” value under setting [1] came to 10.

For `COc1ccc(Nc2nc(Nc3ccc(N4CCN(C)CC4)c(C(N)=O)c3)ncc2F)cc1Cl` [Cmpd 50], under setting [1], the “IC50 Ratio (Syk/JAK)” value is recorded as 26.

Consider `Fc1cnc(Nc2ccc3c(c2)OCCO3)nc1Nn1cccc1` [Cmpd 16], for which the “IC50 Ratio (Syk/JAK)” value under setting [2] is 22.

Regarding `CNC(=O)Cn1ncc2ccc(Nc3nc(Nc4ccc5c(c4)OCCO5)ncc3F)cc21` [Cmpd 84], the “IC50 Ratio (Syk/JAK)” value under setting [1] came to 10.

For the compound `CNC(=O)COc1cccc(Nc2ncc(F)c(Nc3ccc(OC)c(CN(C)C)c3)n2)c1` [Cmpd 8], the “IC50 Ratio (Syk/JAK)” value under setting [2] was 51.

`CNC(=O)CNC(=O)c1ccc(Nc2ncc(F)c(Nc3ccc4c(c3)NC(=O)C(C)(C)O4)n2)cc1` [Cmpd 70]: the “IC50 Ratio (Syk/JAK)” value under setting [1] came to 15.

As for `O=C(O)C1CCC(Nc2nc(Nc3ccc4c(c3)OCCO4)ncc2F)CC1` (stereo not shown) [Cmpd 18], the “IC50 Ratio (Syk/JAK)” value under setting [2] was 20.

On to `NC(=O)c1ccc(Nc2ncc(F)c(Nc3ccc(C(N)=O)cc3)n2)cc1` [Cmpd 46], for which the “IC50 Ratio (Syk/JAK)” value under setting [1] is listed as 30.

As for `CC(C)Nc1nc(Nc2cccc(N3CCN(C)CC3)c2)ncc1F` [Cmpd 11], under setting [2], the “IC50 Ratio (Syk/JAK)” value is 38.

`CNC(=O)COc1cccc(Nc2ncc(F)c(Nc3cccc(OC(=O)N(C(=O)NC(C)C)C(C)C)c3)n2)c1` [Cmpd 71]: the “IC50 Ratio (Syk/JAK)” value under setting [1] worked out at 15.

As for `Cc1cc(Nc2ncc(F)c(NC3C=C[C@@H](C(N)=O)C3)n2)ccc1N1CCN(C)CC1` (stereo partly shown) [Cmpd 69], the “IC50 Ratio (Syk/JAK)” value under setting [1] is reported as 16.

`CN1CCN(C(=O)CNc2cccc(Nc3ncc(F)c(Nc4cccc(NCCO)c4)n3)c2)CC1` [Cmpd 56]: the “IC50 Ratio (Syk/JAK)” value under setting [1] is given as 21.

On to `CN1CCN(c2cccc(Nc3ncc(F)c(Nc4ccc5c(n4)NCCO5)n3)c2)CC1` [Cmpd 40], for which the “IC50 Ratio (Syk/JAK)” value under setting [1] is on record as 32.

Regarding `Fc1cnc(Nc2cccc(-c3ncco3)c2)nc1Nc1cc(C2CC2)n[nH]1` [Cmpd 29], the “IC50 Ratio (Syk/JAK)” value under setting [1] stood at 109.

For `NC(=O)c1ccc(Nc2ncc(F)c(Nc3ccc4c(c3)NC(=O)C(CCO)O4)n2)cc1` (stereo not shown) [Cmpd 60], the “IC50 Ratio (Syk/JAK)” value under setting [1] is on record as 20.

`Cc1cc(Nc2ncc(F)c(NC3CC(C)(C)N(C)C(C)(C)C3)n2)ccc1N1CCN(C)CC1` [Cmpd 49]: the “IC50 Ratio (Syk/JAK)” value under setting [1] came out at 26.

Consider `CC(=O)N(C)c1ccc(Nc2ncc(F)c(N3CCN(C)CC3)n2)cc1` [Cmpd 20], for which the “IC50 Ratio (Syk/JAK)” value under setting [2] is 14.

As to `Oc1cccc(Nc2ncc(F)c(Nc3cccc(-c4nnc(-c5ccccc5)o4)c3)n2)c1` [Cmpd 12], the “IC50 Ratio (Syk/JAK)” value under setting [2] is 36.

As for `CN1CCN(c2ccc(Nc3ncc(F)c(NC4CCCC4)n3)cc2Cl)CC1` [Cmpd 72], under setting [1], the “IC50 Ratio (Syk/JAK)” value stood at 14.

Take `Cc1cc(Nc2nc(Nc3ccc(C(N)=O)cc3)ncc2F)ccc1N1CCN(C)CC1` [Cmpd 28]: the “IC50 Ratio (Syk/JAK)” value under setting [1] turned out to be 146.

As to `CN1CCN(c2ccc(Nc3ncc(F)c(NC4CCCC4C(N)=O)n3)cc2Cl)CC1` (stereo not shown) [Cmpd 87], the “IC50 Ratio (Syk/JAK)” value under setting [1] is given as 10.

As for `CCN(CC)CCNC(=O)c1ccc(Nc2ncc(F)c(Nc3ccc4c(c3)NC(=O)C(CCO)O4)n2)cc1` (stereo not shown) [Cmpd 33], the “IC50 Ratio (Syk/JAK)” value under setting [1] worked out at 57.

As to `CN1CCN(c2ccc(Nc3ncc(F)c(NC4CCC4)n3)cc2CO)CC1` [Cmpd 39], the “IC50 Ratio (Syk/JAK)” value under setting [1] was found to be 59.

With `CCCCOc1ccc(Nc2nc(Nc3ccc4c(c3)OCCO4)ncc2F)cc1` [Cmpd 17], the “IC50 Ratio (Syk/JAK)” value under setting [2] is listed as 20.

With `CCOC(=O)c1cnc(Nc2ccc3[nH]ncc3c2)nc1Nc1ccc2[nH]ncc2c1` [Cmpd 10], the “IC50 Ratio (Syk/JAK)” value under setting [2] is listed as 43.

For the compound `CCN(CC)CNC(=O)c1ccc(Nc2ncc(F)c(Nc3ccc4c(c3)C(=O)NC(=O)C4(C)C)n2)cc1` [Cmpd 65], the “IC50 Ratio (Syk/JAK)” value under setting [1] was 18.
